Laboratory results as given in article PMC11286589, “Population pharmacokinetics and exposure–response analyses of SAF-189s in Chinese patients with ALK+/ROS1+ non-small cell lung cancer” (Frontiers in Pharmacology, 2024).
Read-outs that look alike come from different tables or passages of the source.

Tests used:
[1] = tested on: ALK+/ROS1+ advanced NSCLC; test: Exposure–efficacy analysis (logistic regression, Cox regression, SFBE tumor model); type: in vivo, human; details: for Incidence CR: 61 patients
Description: (§1) All studies were conducted in accordance with the Good Clinical Practice guidelines and Declaration of Helsinki. The protocols were approved by the independent ethics committee of each investigation site, and all subjects provided informed consent. The tumor responses were assessed by the IRC based on the Response Evaluation Criteria in Solid Tumors (RECIST) 1.1 conditions. The exposure–efficacy analyses of SAF-189s were conducted based on data from patients in the SAF001 study to explore the relationships between systemic exposure and efficacy endpoints, including the ORR, PFS, and duration of response (DOR). The exposure–safety analyses of SAF-189s were conducted based on data from patients in the SAF001 study to explore the relationships between the systemic exposure and safety endpoints, including the adverse events (AEs) of interest. In these studies, the SAF-189s plasma concentrations were analyzed using validated liquid chromatography tandem mass spectrometry within the assay range of 0.5–150 ng mL^–1.
The exposure–efficacy analysis entails evaluation of the relationships between the individual SAF-189s exposures and efficacy endpoints. These efficacy endpoints include the ORR, PFS, DOR, and tumor size. In Eq. 1, the Stein-Fojo biexponential (SFBE) model was used to characterize the tumor shrinkage (mean shrinkage rate, KS) and tumor growth inhibition (mean regrowth rate, KG) parameters to compute the sum of longest lesion diameters (SOD). SODij= It≤0×SOD0i×expKGi×tij+It>0×SOD0i×exp−KSi×tij+expKGi×tij−1+eij. (1)
The individual post hoc PK parameters from the final PopPK model and the most prevalent dosage were used to calculate Cmin,ss and AUCss at steady state. The exposure was assessed for its relationship with the ORR using a logistic regression model and with PFS/DOR using the Cox regression model. The individual model parameter estimates (KGi, KSi) were plotted versus Cmin, ss_i to explore the relationships between exposure and tumor growth.

[2] = Adverse events in patients of study SAF001; type: in vivo, human
Description: as §1
The exposure–safety relationships were characterized using the exposure metrics to the first occurrence of an event. The AEs of interest selected for analysis included hyperglycemia and proteinuria. The individual post hoc PK parameters from the final PopPK model and the first dosage were used to calculate the Cmin,ss, Cmax,ss, and AUCss at steady state, which were used as the exposure metrics. The exposure–safety analysis was performed using a logistic regression modeling approach.

[3] = tested on: ALK+/ROS1+ advanced NSCLC; details: ref Yang et al., cited from earlier work; for ORR: phase II, 2022a
[4] = no reference given, cited from earlier work
[5] = previous NCA results, no reference given, cited from earlier work
[6] = tested on: tumor xenograft models derived from genetically engineered cells overexpressing ALK rearrangements, ROS1+ rearrangements, or crizotinib-resistant ALK and ROS1 …; design: method as in Xia et al., 2021; details: tumor xenograft and CNS tumor models; ref Xia et al., 2021; cited from earlier work
[7] = Cmin,ss quartile 1, 61 patients
[8] = Cmin,ss quartile 2, 61 patients
[9] = Cmin,ss quartile 3, 61 patients
[10] = Cmin,ss quartile 4, 61 patients
[11] = parameter Cmin,ss, 192 patients, p 0.251
[12] = parameter Cmin,ss, 244 patients, p 0.059
[13] = ROS1-naive patients, phase IIa, 2022b

Q: Which “Incidence CR” value ([1]; Cmin,ss quartile 1 (18–60.7 ng mL^–1)) does the source give for `Cc1cc(Nc2ncc(Cl)c(Nc3ccccc3S(=O)(=O)C(C)C)n2)c2c(c1C1CCN(C)CC1)C[C@@H](C)O2` [SAF-189s] here?
A: 1 (1.64) N (%)

Q: What about the “Incidence NE” value [1, 7] of the same molecule?
A: 0 (0.00) N (%)

Q: What about the “Incidence PD” value [1, 7] of the same molecule?
A: 3 (4.92) N (%)

Q: What about the “Incidence PR” value [1, 7] of the same molecule?
A: 53 (86.89) N (%)

Q: And the “Incidence SD” value [1, 7]?
A: 4 (6.56) N (%)

Q: What about the “Incidence CR” value ([1]; Cmin,ss quartile 2 (60.7–79 ng mL^–1)) of the same molecule?
A: 0 (0.00) N (%)

Q: What about the “Incidence NE” value [1, 8] of the same molecule?
A: 0 (0.00) N (%)

Q: What about the “Incidence PD” value [1, 8] of the same molecule?
A: 4 (6.56) N (%)

Q: And the “Incidence PR” value [1, 8]?
A: 44 (72.13) N (%)

Q: What about the “Incidence SD” value [1, 8] of the same molecule?
A: 13 (21.31) N (%)

Q: And the “Incidence CR” value ([1]; Cmin,ss quartile 3 (79–108 ng mL^–1))?
A: 0 (0.00) N (%)

Q: What about the “Incidence NE” value [1, 9] of the same molecule?
A: 0 (0.00) N (%)

Q: And the “Incidence PD” value [1, 9]?
A: 2 (3.28) N (%)

Q: And the “Incidence PR” value [1, 9]?
A: 47 (77.05) N (%)

Q: What about the “Incidence SD” value [1, 9] of the same molecule?
A: 12 (19.67) N (%)

Q: What about the “Incidence CR” value ([1]; Cmin,ss quartile 4 (108–182 ng mL^–1)) of the same molecule?
A: 1 (1.64) N (%)

Q: What about the “Incidence NE” value [1, 10] of the same molecule?
A: 0 (0.00) N (%)

Q: And the “Incidence PD” value [1, 10]?
A: 3 (4.92) N (%)

Q: What about the “Incidence PR” value [1, 10] of the same molecule?
A: 46 (75.41) N (%)

Q: What about the “Incidence SD” value [1, 10] of the same molecule?
A: 11 (18.03) N (%)

Q: And the “odds ratio (OR), probability of achieving ORR vs Cmin,ss” value ([1]; logistic regression, all patients (n = 244), p = 0.084)?
A: 0.556

Q: And the “Cox regression estimate, DOR” value [1, 11]?
A: 0.0059

Q: What about the “Hazard ratio (95% CI), DOR” value [1, 11] of the same molecule?
A: 1.006 (0.996–1.016)

Q: And the “Cox regression estimate, PFS” value [1, 12]?
A: 0.0071

Q: What about the “Hazard ratio (95% CI), PFS” value [1, 12] of the same molecule?
A: 1.007 (1.000–1.015)

Q: What about the “tumor size after initiation of treatment” value ([1]; tumor growth inhibition (SFBE) model, most patients) of the same molecule?
A: decreased rapidly

Q: And the tolerability ([2]; 160 mg QD dosing regimen)?
A: well tolerated

Q: What about the “incidence of drug-related TEAE leading to permanent discontinuation” value ([2]; 160 mg dose group) of the same molecule?
A: 2%

Q: What about the “incidence of grade ≥3 TEAE” value ([2]; 160 mg dose group, ALK+ and ROS1+ patients (n = 153)) of the same molecule?
A: less than 9.15%

Q: What about the tolerability ([2]; 210 mg dose vs other lower doses) of the same molecule?
A: less tolerated

Q: What about the “incidence rate of hyperglycemia” value ([2]; SAF001 patients, any grade) of the same molecule?
A: 55.74%

Q: What about the “Diarrhea, number of patients (%)” value ([2]; any grade, N = 296) of the same molecule?
A: 65 (21.96%)

Q: What about the “Hypercholesterolemia or cholesterol increase, number of patients (%)” value ([2]; any grade, N = 296) of the same molecule?
A: 111 (37.50%)

Q: And the “Hyperglycemia, number of patients (%)” value ([2]; any grade, N = 296)?
A: 165 (55.74%)

Q: And the “Nausea, number of patients (%)” value ([2]; any grade, N = 296)?
A: 112 (37.84%)

Q: And the “Proteinuria, number of patients (%)” value ([2]; any grade, N = 296)?
A: 90 (30.41%)

Q: What about the “Vomiting, number of patients (%)” value ([2]; any grade, N = 296) of the same molecule?
A: 102 (34.46%)

Q: What about the “Diarrhea, number of patients (%)” value ([2]; ≥ Grade 2, N = 296) of the same molecule?
A: 17 (5.74%)

Q: What about the “Hypercholesterolemia or cholesterol increase, number of patients (%)” value ([2]; ≥ Grade 2, N = 296) of the same molecule?
A: 27 (9.12%)

Q: And the “Hyperglycemia, number of patients (%)” value ([2]; ≥ Grade 2, N = 296)?
A: 82 (27.70%)

Q: What about the “Nausea, number of patients (%)” value ([2]; ≥ Grade 2, N = 296) of the same molecule?
A: 8 (2.70%)

Q: What about the “Proteinuria, number of patients (%)” value ([2]; ≥ Grade 2, N = 296) of the same molecule?
A: 28 (9.46%)

Q: What about the “Vomiting, number of patients (%)” value ([2]; ≥ Grade 2, N = 296) of the same molecule?
A: 15 (5.07%)

Q: What about the “IRC-assessed ORR” value [3, 13] of the same molecule?
A: 94.1%

Q: What about the “median progression-free survival (PFS)” value [3, 13] of the same molecule?
A: 16.5 months

Q: And the ORR ([3]; ALK+ patients with brain metastases)?
A: 74.6%

Q: And the ORR ([3]; ALK-inhibitor-naive patients)?
A: 92.3%

Q: And the ORR ([3]; crizotinib-pretreated group)?
A: 65.4%

Q: What about the ORR ([3]; overall ALK+ patients) of the same molecule?
A: 78.7%

Q: And the “IRC-assessed ORR” value ([3]; phase IIb, ROS1-naive, brain metastases subgroup, 2022b)?
A: 85.7%

Q: What about the “IRC-assessed ORR” value ([3]; phase IIb, overall ROS1-naive patients, 2022b) of the same molecule?
A: 80.4%

Q: And the permeability ([4]; BCS classification)?
A: low permeability

Q: What about the solubility ([4]; BCS classification) of the same molecule?
A: low solubility

Q: What about the BCS class [4] of the same molecule?
A: BCS IV

Q: What about the “apparent clearance (CL/F)” value ([5]; after multiple doses at 20 mg once daily) of the same molecule?
A: 132 L h^–1

Q: What about the “apparent clearance (CL/F)” value ([5]; after multiple doses at 210 mg once daily) of the same molecule?
A: 58.3 L h^–1

Q: And the antitumor effects [6]?
A: Strong antitumor effects
